Data from ChEMBL document CHEMBL4049447 (J Med Chem, 2017).

How the values were obtained:
[1] = Apparent permeability across apical to basolateral side in human Caco2 cells assessed as drug recovery at 10 uM measured up to 2 hrs by ESI-LC/MS/MS analysis; type: ADME, cell-based; details: Caco-2, read-out: Drug recovery
[2] = Apparent permeability across basolateral to apical side in human Caco2 cells assessed as drug recovery at 10 uM measured up to 2 hrs by ESI-LC/MS/MS analysis; type: ADME, cell-based; details: Caco-2, read-out: Drug recovery

recovery at 2 h, 10 µM [1]: 63%
recovery at 2 h, 10 µM [2]: 103%
SMILES: Nc1ccc2ccc(CCNCCc3cccc(Cl)c3)cc2n1
